{
  "source": "patent EP0271041A2",
  "about": "“Atrial peptide derivatives” (ABBOTT LABORATORIES, priority 1986, dated 1988)",
  "origin": "cited, not measured here",
  "conditions": "relative to furosemide",
  "note": "Bridges are numbered along the chain shown (N, C = ends). Where no end group is shown, it is not given here.",
  "data": [
    {"substance": "alpha-human atrial natriuretic polypeptide (SLRRSSCFGGRMDRIGAQSGLGCNSFRY; disulfide 7-23 (inferred); ends not checked; UniProt P01160 124-151, looked up) [alpha-hANP, polypeptide consisting of 28 amino acids isolated from human atrium]", "values": [
      {"measurement": "diuretic action, times as strong as that of furosemide", "result": "about 1000 times"}
    ]}
  ]
}
